Key:
[1] = system: WT (ipn02.3λ) immortalized human-derived Schwann cells; test: CellTiter-Glo cell proliferation assay, WT Schwann cells; format: cell-based; conditions: 48 hours incubation
From the text: (§1) In this study the efficacy of nitroxoline was investigated and its ability to reduce cellular proliferation, increase apoptosis, and overall cell viability utilizing immortalized wild-type (WT) and NF1 deficient (Nf1^−/−) Schwann cells (SCs). Nf1^−/− SCs have increased survival and proliferation in vitro, consistent with the in vivo phenotypes (Kim H A et al., Mol Cell Biol. 1997; 17 (2): 862-72). The present studies utilize WT (ipn02.3λ) and NF1^−/− (ipNF95.6) immortalized human-derived SC lines. The selectivity of nitroxoline was compared between NF1^−/− and WT cells.
(§2) Cells were treated with serially diluted nitroxoline starting from […] and incubated for 48 hours. After the incubation period, proliferation, viability, and apoptosis assays were performed as described below: • Cell proliferation was assessed using the CellTiter-Glo Assay (Promega) which measures ATP consumption. […] After 10 minutes, the plates were read using a 96-well microplate luminometer. • Cellular apoptosis was assessed using the Caspase-Glo 3/7 kit (Promega). […] After 10 minutes, plates were read using a 96 well luminometer and caspase 3/7 activity was measured.

[2] = system: NF1−/− (ipNF95.6) immortalized human-derived Schwann cells; test: CellTiter-Glo cell proliferation assay, NF1 deficient Schwann cells; format: cell-based; conditions: 48 hours incubation
From the text: as §1, §2

[3] = system: WT (ipn02.3λ) immortalized human-derived Schwann cells; test: Caspase-Glo 3/7 apoptosis assay, WT Schwann cells; format: cell-based; conditions: 48 hours incubation, caspase 3/7 activity
From the text: as §1, §2

[4] = system: NF1−/− (ipNF95.6) immortalized human-derived Schwann cells; test: Caspase-Glo 3/7 apoptosis assay, NF1 deficient Schwann cells; format: cell-based
From the text: as §1, §2

[5] = system: Postn-Cre+ Nf1fl/fl mouse model of plexiform neurofibroma; test: In vivo drug testing in Nf1-KO mice (plexiform neurofibroma model); conditions: oral gavage, 12 weeks
From the text: The aim of this study was to evaluate the effect of nitroxoline in a mouse model of neurofibromatosis type 1, more specifically a model that develops plexiform neurofibromas. This study is the same used by AstraZeneca for the approval of selumetinib for pNF.
This study uses the Postn-Cre+Nf1^fl/fl mouse model of plexiform neurofibroma. The neurofibromas that arise in these mice faithfully recapitulate human disease (Burks et al. 2019). At 4 months of age when mice (male and female) had established plexiform neurofibromas they were randomised into three treatment groups and administered nitroxoline at 120 mg/kg QD, 120 mg/kg BD or vehicle (10% DMSO in 90% corn oil) via oral gavage. Mice were treated for 12 weeks then sacrificed. Mice were perfused and fixed in 10% neutral buffered formalin.
The whole bodies were decalcified in 5% formic acid, the spinal proximal nerve tree was dissected, and nerve width (including the tumour formed along it) measured via calliper (shown in FIG. 3) across four nerves per mouse. Nerve volume was subsequently calculated using a spheroid calculation: 0.52×(width) 2 w length.
To quantify tumour number, the nerves were processed to paraffin blocks, sectioned, and stained for collagen using Masson's trichrome stain. Tumour number was scored from these slides by a clinician.
Graphs and statistical analysis of data were produced using GraphPad Prism (Ver 9).

SMILES: O=[N+]([O-])c1ccc(O)c2ncccc12 [Nitroxoline, 5-nitroquinolin-8-ol]
- concentration at which antiproliferative effect was observed [1]: greater than 1 μM
- concentration at which antiproliferative effect was observed [2]: greater than 1 μM
- concentration at which induction of apoptosis was evident [3]: greater than 3 UM
- concentration at which induction of apoptosis was evident ([4]; Nf1−/− Schwann cells, 48 hours incubation, caspase 3/7 activity): greater than 3 UM
- magnitude of the increase in apoptosis in Nf1−/− SC compared with WT SC ([4]; at concentrations greater than 10 μM, 48 hours): significantly greater
- proximal nerve volume compared to vehicle treated control mice ([5]; 120 mg/kg BD): lower proximal nerve volumes
- proximal nerve volume compared to vehicle treated control mice ([5]; 120 mg/kg QD): lower proximal nerve volumes
- tumour number along the nerves compared to vehicle controls ([5]; nitroxoline treated mice (120 mg/kg QD or BD)): a reduction in tumour number

Source: patent US20250000852A1, “NITROXOLINE FOR USE IN THE TREATMENT OR PREVENTION OF A PLEXIFORM NEUROFIBROMA” (HEALX LTD, priority 2021, published 2025)
